Reference: patent publication US11787850B2, “Peptidic TGF-beta antagonists” (priority 2015, dated 2023)

Experiments:
[1] = system: TGF-β-induced epithelial-mesenchymal transition (EMT) response in squamous cell carcinoma (A431) cells; assay: Immunoblot of EMT markers in A431 cells; format: cell-based
Protocol: (FIG. 26A) Immunoblot analysis was carried out using cell lysates of A431 cells following incubation with TGF-β, P16, or scrambled control (P16.2) as indicated to determine expression of proteins involved in the EMT response. (FIG. 26B) Densitometry analysis was subsequently performed using the developed immunoblot to illustrate the relative expression of each protein as a function as P16 concentration as indicated.
A431 cancer cells treated with 10 nM of P16.2 (negative peptide control), P12, P16 or PA in the absence or presence of 100 pM TGF-b, followed by 24 hrs of incubation. Cells lysates were analyzed by Western blot for the expression of Fibronectin (mesenchymal marker), Snail and Twist (EMT markers). Actin expression was used as loading control.

[2] = system: human keratinocyte HaCat cell migration; assay: Wound closure assay, HaCat keratinocytes; format: cell-based; settings: 10 nM peptide, 100 pM TGF-β, 24 hours (FIG. 28)
Protocol: FIGS. 28A and 28B show the results of wound closure assays performed using human keratinocyte HaCat cells. […] (FIG. 28A) Human Keratinocyte HaCat cells were starved for 24 hours, scratched with pipette tips, and then treated with 100 pM TGF-β and 10 nM CD109-based peptides as indicated for 24 hours. Microscopy images were taken at time 0 and 24 hours of treatment. (FIG. 28B) Migration distances were measured using the Image J software platform. Error bars represent mean+/−standard deviation, asterisk designates a P value of <0.05.

[3] = system: TGF-b induced cellular invasion of squamous cell carcinoma (A431) cells; assay: Matrigel invasion assay, A431 cells; format: cell-based; settings: 10 nM peptide, 100 pM TGF-b, 24 hrs (FIG. 38)
Protocol: A431 cancer cells (8000 cells) were seeded on a BioCoat™ Matrigel® Invasion Chamber and treated with 10 nM of P16.2 (negative peptide control), P16 or PA in the absence or presence of 100 pM TGF-b, followed by 24 hrs of incubation. Invasive cells (in the lower chambers) were stained by crystal violet dye, photographed and counted. Representative photos (A) and statistical plots of invasion (B) are shown. The data are shown as mean±SD of the number of invasive cells for three independent experiments. **P<0.01 and ***P<0.001 as compared with controls. […] Squamous cell carcinoma (epidermoid A431 and head and neck FaDu) cells were stimulated with 100 pM of TGF-b1, then treated with 10 nM of peptide 16.2, P16, PA or CD109 for 24 hours. Cells were analysed by Flow cytometry and CD133 positive cell population, which represent cancer stem cell population, were quantified.

[4] = system: TGF-β-induced migration of squamous cell carcinoma (A431) cells; assay: Scratch (wound closure) migration assay, A431 cells; format: cell-based; settings: 100 pM TGF-β1, 24 hours, P16 concentrations as indicated (FIG. 27)
Protocol: FIG. 10A and FIG. 10B illustrate that peptides B, E and X-1 inhibit TGF-β-induced cellular migration of A431 cells in vitro. Results are shown prior to treatment (0 hr, top panels) and after treatment (24 hr, bottom panels) for each of the peptides used. (See FIG. 2 and Table 1 for the amino acid sequence identity of the peptides).
A431 cells were grown to 80-90% confluence and serum-starved overnight. The next day, cells were scratched with a plastic pipette tip (time 0 hour) and then left untreated or treated for 24 hours with 100 pM TGF-β1 alone or in the presence of P16 as indicated. (FIG. 27A) Digital images were captured at 0 h and 24 h using an EVOS XL Core microscope. (FIG. 27B) Micrographs were subsequently quantitated to determine the percentage of the wound area that had closed following 24 hours in the presence or absence of P16, as indicated.
Cells were scratched with a pipette tip and treated without or with 100 pM TGF-b1 alone or in the presence of 10 nM Peptide A or Peptide A1 (C31S mutant). Pictures were taken at 0 and 24 hrs. Peptide A but not Peptide A1 inhibits TGF-b-induced migration in A431 cells. Peptide A contains monomeric and dimeric forms whereas Peptide A1 contains a C31S mutation to prevent intermolecular disulfide bond formation so that it forms monomers only.
Squamous cell carcinoma (A431) or breast cancer (MDA-MB-231) cells were grown to 80-90% confluence and serum-starved overnight. The next day, cells were scratched with a plastic pipette tip (time 0 hour) and then left untreated or treated for 24 hours with 100 pM TGF-β1 alone or in the presence of 10 nM peptide B (100 aa), E (67 aa), or X1 (P28, 28 aa). Digital images were captured at 0 h and 24 h (20× magnification) using an EVOS XL Core microscope.

[5] = system: bleomycin-induced skin fibrosis; assay: Bleomycin-induced skin fibrosis (scleroderma) mouse model; format: in vivo
Protocol: Wild type mice were treated with bleomycin ([…]) to induce skin fibrosis or PBS (negative control). Mice were treated with CD109 ([…]), P16 ([…]), or PBS by 100 μL subcutaneous injection every other day for 28 days for a total of 14 injections.
(§1) Mice were injected intradermally with bleomycin (5 mg) in […] PBS or PBS alone every second day for 28 days. Mice were co-injected without or with 1.0 mg recombinant CD109 protein or P16 peptide every second day for 28 days (14 mg total). Skin tissue was harvested and immunohistochemical analysis was performed for the detection of Fibronectin, α-sma, CTGF and Type-1 Collagen. Representative images of sections of skin derived from CD109 and p16 treated mice on day 28 after initial bleomycin or PBS treatment are shown. A total of 4-6 different mice per treatment group were analyzed. Original magnification x 20.
as §1, with “phospho-Smad2, phospho-Smad1” for “Fibronectin, α-sma, CTGF”, “TGF-β levels.” for “Type-1 Collagen.”

[6] = system: TGF-β1-induced Smad3-driven (CAGA12-lux) transcriptional activity; assay: Luciferase reporter assay in HEK293-(CAGA)12 cells; format: cell-based
[7] = co-injected with bleomycin every second day for 28 days (FIG. 37)

Sequence: ETWIWLDTNMGSRIYQ [Peptide P16]
- inhibition of TGF-b induced EMT response (Fibronectin, Snail, Twist) ([1]; 10 nM peptide, 100 pM TGF-b, 24 hrs (FIG. 33)): inhibit
- inhibition of TGF-β-induced EMT response in A431 cells, dose-dependent ([1]; immunoblot and densitometry, P16 concentrations as indicated (FIG. 26)): inhibit
- suppression of HaCat cell migration [2]: suppress
- inhibition of TGF-b induced cellular invasion [3]: significantly inhibit
- inhibition of A431 cell migration, dose-dependent [4]: inhibit
- SMAD1 phosphorylation in skin (immunohistochemistry) [5, 7]: enhancing
- SMAD2 phosphorylation in skin (immunohistochemistry) [5, 7]: reduces
- TGF-β expression in skin (immunohistochemistry) [5, 7]: reduces
- extracellular matrix production (Fibronectin, α-sma, CTGF, Type-1 Collagen, immunohistochemistry) ([5]; co-injected with bleomycin every second day for 28 days, skin on day 28 (FIG. 36)): reduces
- collagen content as assessed by trichrome staining ([5]; subcutaneous injection every other day for 28 days (FIG. 35A)): reducing
- dermal collagen content, ratio of trichrome stain to total skin area ([5]; subcutaneous injection every other day for 28 days (FIG. 35B)): reducing
- dermal thickness ([5]; trichrome staining, subcutaneous injection every other day for 28 days (FIG. 35A)): reducing
- inhibition of TGF-β1-induced CAGA12-lux activity ([6]; 10 nM or 5 nM peptide, 100 pM TGF-β1, 18 hours (FIG. 5)): inhibited
- inhibition of TGF-β1-induced CAGA12-lux activity ([6]; 10 nM peptide, 100 pM TGF-β1, 18 hours (FIG. 6)): inhibited
